Like-named read-outs stand apart in the source and are kept apart here.
Legend:
Pim-1 = Pim-1 (Homo sapiens, UniProt P11309); test: Coupled-enzyme kinase assay with S6 peptide substrate (Pim-1 IC50 determination); format: biochemical
Procedure: The assay was carried out in a total volume of 100 μl in 0.1 M HEPES buffer (pH 7.6) containing 10 mM MgCl2, 2.5 mM phosphoenolpyruvate, 0.2 mM NADH, 30 μg/ml pyruvate kinase, 10 μg/ml lactate dehydrogenase (Roche Diagnostics Corp., Indianapolis, Ind.) and 2 mM DTT in a 96-well plate, and read at 340 nm at 30° C. on a Spectramax spectrophotometer (Molecular Devices, Sunnyvale, Calif.). […] The reaction was started by addition of ATP after 10 minutes pre-incubation of the reaction mixture at 30° C. […] Kinetic analysis was performed by non-linear regression fitting using the program Prism (GraphPad software, San Diego, Calif., USA).

Casein kinase 2 (CK2) = Casein kinase 2 (CK2) (Homo sapiens, UniProt P68400); conditions: Davies et al., supra; read-out: IC50 / potency of Casein kinase 2 inhibition; cited from earlier work
PKA = PKA (Homo sapiens, UniProt P17612); conditions: in the presence of 50 μM LY294002; cited from earlier work
PI3K = conditions: cited from earlier work

Pim-1, sequence (P11309 whole entry): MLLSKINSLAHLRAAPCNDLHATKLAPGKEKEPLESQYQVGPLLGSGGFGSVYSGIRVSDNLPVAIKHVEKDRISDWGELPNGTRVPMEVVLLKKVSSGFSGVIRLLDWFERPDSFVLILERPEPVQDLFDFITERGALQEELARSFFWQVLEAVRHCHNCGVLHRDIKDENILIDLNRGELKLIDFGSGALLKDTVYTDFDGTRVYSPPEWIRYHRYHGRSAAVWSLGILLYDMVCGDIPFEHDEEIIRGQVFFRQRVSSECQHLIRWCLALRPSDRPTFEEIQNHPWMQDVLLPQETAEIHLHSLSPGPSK
Casein kinase 2 (CK2), sequence (P68400 whole entry): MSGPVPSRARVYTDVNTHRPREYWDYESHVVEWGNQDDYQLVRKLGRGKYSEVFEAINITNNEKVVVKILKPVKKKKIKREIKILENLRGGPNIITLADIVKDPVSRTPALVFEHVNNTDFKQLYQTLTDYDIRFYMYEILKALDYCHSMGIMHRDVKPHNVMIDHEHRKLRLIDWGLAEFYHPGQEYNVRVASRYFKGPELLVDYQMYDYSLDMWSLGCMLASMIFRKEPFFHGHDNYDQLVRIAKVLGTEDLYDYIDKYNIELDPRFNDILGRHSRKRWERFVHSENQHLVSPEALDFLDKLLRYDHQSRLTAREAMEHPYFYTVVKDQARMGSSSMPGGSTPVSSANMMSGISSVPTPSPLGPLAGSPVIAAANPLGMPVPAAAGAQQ

Compound	IC50 (Pim-1) [µM]	potency of Pim-1 inhibition (Pim-1; panel of kinase inhibitors, refers to Table 1)	IC50 (Casein kinase 2 (CK2)) [µM]	reduction of PKA activity (PKA) [%]	IC50 (PI3K; Davies et al., Biochem. J. 351: 95-105 (2000), read-out: potency of PI3K inhibition reported by Davies et al.) [µM]	IC50 (PI3K; Mizuno et al., FEBS Lett. 330: 114-116 (1993) as cited, read-out: IC50 for PI3K, as originally described) [µM]
COC(=O)[C@]1(O)C[C@@H]2O[C@@]1(C)n1c3ccccc3c3c4c(c5c6ccccc6n2c5c31)C(=O)NC4 [K-252a]	0.15	sub-micromolar				
O=c1cc(N2CCOCC2)oc2c(-c3ccccc3)cccc12 [LY294002, 2-(4-morpholinyl)-8-phenyl-4H-1-benzopyran-4-one]			6.9	9	[…]	[…]
